Laboratory results from DBAASP.
In brackets after ≈: the same amount, converted by molar mass. Each block holds one molecule with its values, some of them ahead of it.

What was measured:
Experiment in all cases: ≥ marks a high value that may be exact or a test limit, other limits are often not marked, values filed in µg/mL are converted to µM
Acinetobacter baumannii = tested on: Acinetobacter baumannii
Klebsiella pneumoniae M6 = tested on: Klebsiella pneumoniae M6
Escherichia coli LEC 001 = tested on: Escherichia coli LEC 001
[1] = tested on: Pseudomonas syringae pv. tomato
[2] = tested on: Escherichia coli NCTC 12923
[3] = tested on: Escherichia coli CFI_161_NDM
[4] = tested on: Acinetobacter baumannii AYE
[5] = tested on: Xanthomonas axonopodis pv. phaseoli
[6] = tested on: Escherichia coli CFI_160_KPC2
[7] = tested on: Acinetobacter baumannii NCTC 13424
Escherichia coli 319238 = tested on: Escherichia coli 319238
[8] = tested on: Klebsiella pneumoniae NCTC 13368
[9] = tested on: Pseudomonas aeruginosa PAO1
Staphylococcus aureus 15 = tested on: Staphylococcus aureus 15
[10] = tested on: Acinetobacter baumannii ATCC 17987
[11] = tested on: Pseudomonas aeruginosa NCTC 13437
[12] = tested on: Acinetobacter baylyi ADP1
[13] = tested on: Enterococcus faecalis NCTC 12201
[14] = tested on: Acinetobacter baumannii NCTC 13302
[15] = tested on: Enterococcus faecalis NCTC 775
[16] = tested on: Staphylococcus aureus NCTC 9144
[17] = tested on: Enterococcus faecalis NCTC 12204
[18] = tested on: Staphylococcus aureus ATCC 25923
[19] = tested on: Salmonella enterica subsp. enterica serovar Typhimurium C77-31
Escherichia coli 078 = tested on: Escherichia coli 078
[20] = tested on: Staphylococcus epidermidis ATCC 12228
[21] = tested on: Streptococcus thermophilus YM-C
[22] = tested on: Salmonella enterica subsp. enterica serovar Pullorum ATCC 7913
[23] = tested on: Staphylococcus aureus ATCC 29213
[24] = tested on: Lacticaseibacillus rhamnosus 7469
Streptococcus agalactiae = tested on: Streptococcus agalactiae
Escherichia coli UB1005 = tested on: Escherichia coli UB1005
[25] = tested on: Streptococcus agalactiae CICC 10465
[26] = tested on: Escherichia coli ATCC 25922
[27] = tested on: Salmonella enterica subsp. enterica serovar Typhimurium ATCC 14028
[28] = tested on: Pseudomonas aeruginosa ATCC 27853
[29] = tested on: Mannheimia haemolytica 82-25
[30] = tested on: Pseudomonas aeruginosa K799
Vibrio anguillarum = tested on: Vibrio anguillarum
[31] = tested on: Salmonella enterica serovar typhimurium MS7953s
[32] = tested on: Salmonella enterica subsp. enterica serovar Typhimurium ATCC 14028s
Aeromonas salmonicida = tested on: Aeromonas salmonicida
[33] = tested on: Pseudomonas aeruginosa Z61
[34] = tested on: Staphylococcus epidermidis C621
[35] = tested on: Acinetobacter baumannii ATCC 19606
[36] = tested on: Pseudomonas aeruginosa ATCC 47085
[37] = tested on: Staphylococcus aureus ATCC 35556
[38] = tested on: Escherichia coli D31 CGSC 5165

MIC [18]: > 64 µM | MIC [19]: ≥ 64 µM | MIC (Escherichia coli 078): ≥ 64 µM | MIC [20]: > 64 µM | MIC [21]: ≥ 64 µM | MIC [22]: ≥ 64 µM | MIC [23]: > 64 µM | MIC [24]: ≥ 64 µM | MIC (Streptococcus agalactiae): 4 µM (≈ 8.55 µg/mL) | MIC (Escherichia coli UB1005): ≥ 64 µM | MIC [25]: 4 µM (≈ 8.55 µg/mL) | MIC [26]: > 64 µM | MIC [27]: > 64 µM | MIC [28]: > 64 µM
SMILES: CC[C@H](C)[C@H](NC(=O)[C@H](CC(C)C)NC(=O)[C@@H](NC(=O)[C@@H](N)CC(=O)O)[C@@H](C)CC)C(=O)N[C@H](C(=O)N[C@H](C(=O)NCC(=O)NCC(=O)NCC(=O)N[C@@H](CO)C(=O)NCC(=O)N[C@@H](CCCCN)C(=O)N[C@@H](CCC(=O)O)C(=O)N[C@@H](CCCN=C(N)N)C(=O)N[C@@H](CCCCN)C(=O)N[C@@H](CCCCN)C(=O)N[C@@H](CCCN=C(N)N)C(=O)N[C@@H](CCCN=C(N)N)C(=O)N[C@@H](CCCN=C(N)N)C(N)=O)C(C)C)[C@@H](C)CC [DILIIVGGGSGKERKKRRR]

MIC [30]: 0.704 µM (≈ 2 µg/mL) | MIC (Vibrio anguillarum): 0.704 µM (≈ 2 µg/mL) | MIC [31]: 0.176 µM (≈ 0.5 µg/mL) | MIC [32]: 0.704 µM (≈ 2 µg/mL) | MIC (Aeromonas salmonicida): 0.352 µM (≈ 1 µg/mL) | MIC [33]: 0.704 µM (≈ 2 µg/mL) | MIC [34]: 0.704 µM (≈ 2 µg/mL)
SMILES: CC(C)C[C@H](NC(=O)[C@H](Cc1ccc(O)cc1)NC(=O)[C@H](Cc1cnc[nH]1)NC(=O)[C@@H](NC(=O)[C@H](CC(C)C)NC(=O)[C@H](C)NC(=O)[C@H](C)NC(=O)[C@H](CCCCN)NC(=O)CNC(=O)[C@@H](NC(=O)[C@H](Cc1cnc[nH]1)NC(=O)[C@H](CCCCN)NC(=O)CNC(=O)[C@@H](NC(=O)[C@H](Cc1cnc[nH]1)NC(=O)[C@H](C)NC(=O)[C@H](C)NC(=O)[C@H](CCCCN)NC(=O)[C@H](CCCCN)NC(=O)[C@H](Cc1ccccc1)NC(=O)[C@H](Cc1ccccc1)NC(=O)[C@H](CO)NC(=O)CNC(=O)[C@H](Cc1c[nH]c2ccccc12)NC(=O)CNC(=O)[C@@H](N)CCCCN)C(C)C)C(C)C)[C@@H](C)O)C(N)=O [KGWGSFFKKAAHVGKHVGKAALTHYL]

Continued, molecule first:

SMILES: CC[C@H](C)[C@H](NC(=O)[C@H](CCCCN)NC(=O)[C@H](CCC(=O)O)NC(=O)[C@H](CCCCN)NC(=O)CNC(=O)[C@H](C)N)C(=O)N[C@@H](CCCN=C(N)N)C(=O)N[C@@H](CCCCN)C(=O)N[C@@H](CCCCN)C(=O)N[C@@H](CC(C)C)C(=O)N[C@@H](CCCCN)C(=O)N[C@@H](CC(N)=O)C(=O)N[C@@H](CCC(=O)O)C(=O)N[C@H](C(=O)N[C@@H](CCCCN)C(=O)N[C@@H](CCCCN)C(=O)N[C@@H](CCCCN)C(=O)N[C@@H](Cc1c[nH]c2ccccc12)C(=O)N[C@@H](CCCN=C(N)N)C(=O)N[C@@H](CCCCN)C(=O)N[C@@H](C)C(=O)N[C@H](C(=O)N[C@H](C(=O)N[C@@H](C)C(=O)N[C@@H](Cc1c[nH]c2ccccc12)C(=O)O)[C@@H](C)CC)C(C)C)[C@@H](C)CC [AGKEKIRKKLKNEIKKKWRKAVIAW]
MIC (Acinetobacter baumannii): 0.656 µM (≈ 2 µg/mL) | MIC (Klebsiella pneumoniae M6): 21 µM (≈ 64 µg/mL) | MIC (Escherichia coli LEC 001): 5.24 µM (≈ 16 µg/mL) | MIC [1]: 0.328 µM (≈ 1 µg/mL) | MIC [2]: 0.656 µM (≈ 2 µg/mL) | MIC [3]: 1.31 µM (≈ 4 µg/mL) | MIC [4]: 0.656 µM (≈ 2 µg/mL) | MIC [5]: 0.164 µM (≈ 0.5 µg/mL) | MIC [6]: 2.62 µM (≈ 8 µg/mL) | MIC [7]: 5.24 µM (≈ 16 µg/mL) | MIC (Escherichia coli 319238): 5.24 µM (≈ 16 µg/mL) | MIC [8]: ≥ 42 µM | MIC [9]: 42 µM (≈ 128 µg/mL) | MIC (Staphylococcus aureus 15): ≥ 42 µM | MIC [10]: 2.62 µM (≈ 8 µg/mL) | MIC [11]: ≥ 42 µM | MIC [12]: 1.31 µM (≈ 4 µg/mL) | MIC [13]: ≥ 42 µM | MIC [14]: 0.656 µM (≈ 2 µg/mL) | MIC [15]: ≥ 42 µM | MIC [16]: 10.5 µM (≈ 32 µg/mL) | MIC [17]: 21 µM (≈ 64 µg/mL)

SMILES: C[C@H](NC(=O)CN)C(=O)N[C@@H](CC(=O)O)C(=O)N[C@@H](CC(=O)O)C(=O)N[C@@H](CC(=O)O)C(=O)N[C@@H](CC(=O)O)C(=O)N[C@@H](CC(=O)O)C(=O)O [GADDDDD]
MIC [29]: 30 µM (≈ 21.6 µg/mL)

SMILES: CC[C@H](C)[C@H](NC(=O)[C@H](CCCCN)NC(=O)CNC(=O)[C@H](CC(C)C)NC(=O)[C@@H](NC(=O)[C@H](C)NC(=O)[C@H](CCCCN)NC(=O)CNC(=O)[C@H](C)NC(=O)CNC(=O)[C@H](CCCCN)NC(=O)[C@H](CCSC)NC(=O)[C@H](CCCCN)NC(=O)[C@@H](NC(=O)[C@H](Cc1c[nH]c2ccccc12)NC(=O)[C@H](CC(C)C)NC(=O)[C@H](CCCCN)NC(=O)[C@H](CCCCN)NC(=O)[C@H](CC(C)C)NC(=O)[C@@H](N)CC(C)C)[C@@H](C)O)C(C)C)C(=O)N[C@@H](CCCCN)C(=O)NCC(=O)N[C@@H](CC(C)C)C(=O)N[C@@H](CC(C)C)C(=O)O [LLKKLWTKMKGAGKAVLGKIKGLL]
MIC [35]: 0.94 µM (≈ 2.44 µg/mL) | MIC [36]: 3.75 µM (≈ 9.73 µg/mL) | MIC [37]: 3.75 µM (≈ 9.73 µg/mL) | MIC [38]: 1.88 µM (≈ 4.88 µg/mL)
